Results published in ChEMBL document CHEMBL1275321, “Synthesis and antitumor activity of novel 6-aryl and 6-alkylpyrazolo[3,4-d]pyrimidin-4-one derivatives” (Eur J Med Chem, 2010).
Converted amounts (≈) assume the structure as drawn.

What follows are compounds tested on HCT-116 (assay: Cytotoxicity against human HCT116 cells after 48 hrs by sulforhodamine B assay). Conditions: HCT-116, 48 h.
Type: functional, cell-based
Work on CSc1nn(-c2ccccc2)c2nc(CCNc3ccc(S(N)(=O)=O)cc3)[nH]c(=O)c12 yielded an IC50 of 2.82 µg/mL (≈ 6.18 µM).
For CSc1nn(-c2ccccc2)c2nc(CNc3ccc(S(N)(=O)=O)cc3)[nH]c(=O)c12, the IC50 was 3.09 µg/mL (≈ 6.98 µM).
Work on CSc1nn(-c2ccccc2)c2c1C(=O)NC(c1ccccc1)N2 (configuration not stated) yielded an IC50 of 2.4 µg/mL (≈ 7.13 µM).
For CSc1nn(-c2ccccc2)c2nc(CCNc3ccccc3)[nH]c(=O)c12, the IC50 was 1.34 µg/mL (≈ 3.55 µM).
COc1ccc(NCc2nc3c(c(SC)nn3-c3ccccc3)c(=O)[nH]2)cc1 showed an IC50 of 2.7 µg/mL (≈ 6.86 µM).
CSc1nn(-c2ccccc2)c2nc(-c3cccc([N+](=O)[O-])c3)[nH]c(=O)c12 showed an IC50 of 0.67 µg/mL (≈ 1.77 µM).
With CSc1nn(-c2ccccc2)c2nc(CCNC3CCCCC3)[nH]c(=O)c12 the IC50 was 0.47 µg/mL (≈ 1.23 µM).
